From the SangsterLogP compilation

Assay: method code SF, from DOI: 10.1016/0223-5234(96)88223-7

logP | SMILES
3.42 | Cc1ccccc1-c1nc2ccc([N+](=O)[O-])cc2[nH]1
3.67 | Cc1ccc(-c2nc3ccccc3[nH]2)cc1
3.78 | COc1ccc(-c2nc3ccc(C)cc3[nH]2)c(OC)c1
4.82 | CC(C)(C)c1ccc(-c2nc3ncccc3[nH]2)cc1
5.38 | Clc1ccc2nc(Cc3ccc(Br)cc3)[nH]c2c1
3.42 | CCc1ccc(-c2nc3ncccc3[nH]2)cc1
3.02 | Cc1ccc(-c2nc3ncccc3[nH]2)cc1
4.1 | Cc1ccc(-c2nc3ccc([N+](=O)[O-])cc3[nH]2)c(C)c1
3.02 | COc1ccccc1-c1nc2ccccc2[nH]1
3.2 | Nc1ccc(Cc2nc3ccc(Cl)cc3[nH]2)cc1
2.95 | Clc1ccc(-c2nc3ncccc3[nH]2)cc1
5.21 | Cc1ccc(Cc2nc3ccc(Cl)cc3[nH]2)cc1
2.52 | Fc1ccc(-c2nc3ncccc3[nH]2)cc1
3.48 | COc1ccc(Cc2nc3ccc([N+](=O)[O-])cc3[nH]2)cc1
5.18 | Clc1ccc(Cc2nc3ccc(Cl)cc3[nH]2)cc1
